Patent US20260176274A1, “ENAMINE N-OXIDE TOOLS FOR TARGET IDENTIFICATION APPLICATIONS” (DANA-FARBER CANCER INSTITUTE, INC., priority 2022, published 2026)
Entries after “also recorded” stand apart in the source; their conditions may differ.

Assays:
CA2 [1] = biological target: T1, CA2 (Homo sapiens, UniProt P00918); assay: Labeling of endogenous CA in HEK293T cell lysate, streptavidin blot or pulldown and immunoblot against CA2; assay type: binding; conditions: probe 200 nM; diboron 100 μM 10 min or UV irradiation 10 min
T1 construct: endogenous in cells; host or cells: HEK293T
Protocol: For sample preparation, 5× sample loading buffer was added directly at least 10 μg aliquot of the clicked cell lysate clicked with biotin (picolyl) azide. The samples were subsequently heated to 95° C. for 10 min and loaded onto a BioRad Mini-PROTEAN® TGX™ Precast Protein gel, 4-20% (15 μL) and run in freshly prepared Tris-glycine running buffer (160 V, 50 min). The gel was washed (3×DI water) and transferred to a 0.2 μm PVDF membrane. After transfer, the membrane was washed (3×TBST) and blocked with 5% fish skin gelatin (or any appropriate blocking buffer for Western blot) in TBST (rt, 1 h), and subsequently incubated with the appropriate primary antibody (1:1000 dilution in 5% fish skin gelatin in TBST, rt, 1 h). The membrane was washed (3×TBST) and incubated with the appropriate secondary antibody (1:10000 dilution in 5% fish gelatin in TBST, rt, 1 h). The membrane was again washed thoroughly with TBST and imaged using a chemiluminescence imager (Amersham™ Imager 600, GE).
Samples were loaded onto a Bio-Rad Mini-PROTEAN® TGX™ Precast Protein 15-well gel, 4-20% (15 μL) alongside All Blue Prestained Protein Standard (Bio-Rad, 5 μL) as a ladder, and run in freshly prepared Tris-glycine running buffer (180 V, 45 min). The gel was washed (3×50 mL deionized water) and transferred to a 0.2 m low fluorescence PVDF membrane (Bio-Rad) using a semi-dry transfer apparatus (Bio-Rad Trans-Blot® Turbo™ Transfer System) and preprogrammed transfer setting (1.3 A, 25 V, 10 min).

carbonic anhydrase (CA) [2] = biological target: T2, carbonic anhydrase (CA) (Bos taurus, UniProt P00921); assay: Intact mass spectrometry of recombinant carbonic anhydrase labeled with probe; assay type: binding, bovine; design: purchased MP Biomedicals; host or cells: bovine erythrocytes; conditions: for labeling of CA (intact mass spectrometry): probe 10 μM, B2(OH)4 100 μM or UV irradiation 10 min
Protocol: (§1) Tetrahydroxydiboron (10 μL, 5 mM in PBS, pH 7.4; 100 μM final concentration) was subsequently added and gently mixed. The tubes were incubated at rt for an additional 10 min. Subsequently, the sample was concentrated via spin filtration (Amicon® Ultra-0.5 mL, UFC500324, 10 kDa MWCO) following the manufacturer's recommended protocol. PBS was added after each filtration cycle and the concentration was repeated for a total of five times. The eluate was collected in a clean microcentrifuge tube and its concentration determined by NanoDrop (Thermo Fisher Scientific™).
The samples were then transferred onto a 24-well plate and UV irradiated (365 nm) for 10 min on ice. After every 2 min of irradiation, the plate was rotated […] to ensure complete and equal UV exposure. After irradiation, the samples were transferred to a spin filtration column (Amicon® Ultra-0.5 mL, UFC500324, 10 kDa MWCO) and concentrated following the manufacturer's recommended protocol. PBS was added after each filtration cycle, and the concentration was repeated for a total of five times. The eluate was collected in a clean microcentrifuge tube and its concentration determined by NanoDrop (Thermo Fisher Scientific™).
Replicate samples of carbonic anhydrase (n=4; labeled with enamine N-oxide 21′a or diazirine 21′b) were desalted on a self-packed column (500 μm I.D. fused silica packed with 5 cm POROSR2 resin) and gradient eluted (0→100% B in 1 min, A=200 mM acetic acid in water, B=200 mM acetic acid in acetonitrile) to the mass spectrometer (LTQ XL mass spectrometer, Thermo Fisher Scientific; spray voltage=5 kV). The mass spectrometer recorded full scan profile spectra n z 300-2000. Mass spectra were deconvoluted using MagTran version 1.03b2 (Zhang et al., J. Am. Chem. Soc. Mass. Spectrom., 3:225-244 (1998)). Percent labeling was calculated as intensity labeled protein/(intensity unlabeled protein+intensity labeled protein)×100%.

validated targets = assay: Target identification in cell lysate: BARS probe, diboron activation, streptavidin pulldown, immunoblot against validated targets; assay type: binding; conditions: K562 (24′a) or HepG2 (26′a) cell lysate; probe 1 μM, B2(OH)4 100 μM 10 min
Protocol: The click-modified cell lysate (3 mg) was transferred to 15 mL centrifuge tubes and precipitated via methanol/chloroform precipitation using the following protocol. Methanol (6 mL) was added to the lysate and vortexed. Chloroform (1.5 mL) was subsequently added and vortexed. Finally, water (4 mL) was added and vortexed. The samples were centrifuged (3000×g, 5 min, 4° C.). The top aqueous layer was removed, and methanol (8 mL) was subsequently added and vortexed. The samples were centrifuged (3000×g, 5 min, 4° C.), the supernatant was removed, and the methanol wash was repeated once more. […]
Samples were loaded onto a Bio-Rad Mini-PROTEAN® TGX™ Precast Protein 15-well gel, 4-20% (15 μL) alongside All Blue Prestained Protein Standard (Bio-Rad, 5 μL) as a ladder, and run in freshly prepared Tris-glycine running buffer (180 V, 45 min). The gel was washed (3×50 mL deionized water) and transferred to a […] low fluorescence PVDF membrane (Bio-Rad) using a semi-dry transfer apparatus (Bio-Rad Trans-Blot® Turbo™ Transfer System) and preprogrammed transfer setting (1.3 A, 25 V, 10 min). […]
Enamine N-oxide probe (15 μL; 200 nM or 1 μM final concentration for probe 21′a, […] for probes 22′a-26′a) was added to a microcentrifuge tube containing cell lysate (3 mg, as determined by BCA assay) suspended in cold NP40 lysis buffer (1.455 mL). […]

carbonic anhydrase (CA) [3] = biological target: T2, carbonic anhydrase (CA); assay: Ligand-directed labeling of equimolar recombinant BSA/CA mixture, in-gel fluorescence; assay type: binding; conditions: equimolar BSA and CA; probe 200 nM, B2(OH)4 100 μM, 10 min, PBS pH 7.4
Protocol: An equimolar suspension of recombinant BSA and recombinant CA was prepared by combining BSA (22 μg, 1 mg/mL in PBS, pH 7.4) and CA (10 pg, 1 mg/mL in PBS, pH 7.4) in PBS, pH 7.4 (1 mL). This was approximately 333 nM of each protein. For each reaction, an aliquot of this mixture (97 μL) was added to a microcentrifuge tube. […] Sulfonamide competitor (21′, 1 μL, 5 mM solution in 1% DMSO/PBS; 50 μM final concentration) or PBS, pH 7.4 (1 μL) vehicle control was added to the samples. The tubes were incubated at rt for 30 min. Tetrahydroxydiboron (1 μL, 10 mM solution; 100 μM final concentration) was subsequently added with gentle mixing. The tubes were incubated at rt for an additional 10 min. Subsequently, CuAAC click-cocktail solution containing TAMRA-azide (6 μL) was added and the tubes were incubated at rt in the dark for 1 h.
For sample preparation, 5× sample loading buffer (25 μL) was added directly to the TAMRA-modified BSA/CA samples. The samples were subsequently heated to 95° C. for 10 min and then subjected to SDS-PAGE and in-gel fluorescence imaging. In-gel fluorescence imaging was performed on a Typhoon™ FLA 9500 (GE) at 532 nm with photomultiplier tube (PMT) setting of 300 V.

CA2 [4] = biological target: T1, CA2; assay: In cellulo BARS labeling in live HEK293T cells, immunoblot against CA2; assay type: cell-based; conditions: probe 5 μM 2 h, wash, B2(OH)4 100 μM 10 min
Protocol: HEK293T cells were cultured in DMEM containing 10% FBS (Sigma), 100 units/mL penicillin, and 0.1 mg/mL streptomycin (Sigma) in a humidified chamber at 37° C. under an ambient atmosphere with 5% CO2. After culturing to >80% confluency in 150 mm plates, the plates were removed from the incubator, the media was aspirated, and the cells were trypsinized at 37° C. with 0.25% trypsin, 0.1% EDTA in HBSS (3 mL). After 3 min, complete growth medium (7 mL) was added to the detached cells, and the cell suspension was transferred to a 50 mL centrifuge tube. Cells were pelleted (400×g, 4 min, 23° C.) and washed with 2×20 mL PBS, pH 7.4. At this point, the density of the cell suspension in PBS was determined by the trypan blue exclusion method. The cells were pelleted once more, and the volume of PBS was adjusted to produce a cell suspension with a final density of 2×10^7 cells/mL. The cell suspension was aliquoted into 2 mL microcentrifuge tubes (3×1 mL, 2×10^7 cells each). […] Competitor 21′ (50 μM final concentration, from a 500 mM stock in DMSO) was also added to the third tube. The samples were incubated at 37° C. with end-over-end rotation. After 2 h of incubation, the cells were pelleted (400×g, 4 min, 23° C.) and washed once with PBS, pH 7.4.

carbonic anhydrase = biological target: T3, carbonic anhydrase (Bos taurus, UniProt P00921); assay: Labeling site identification on recombinant carbonic anhydrase by nano-LC-MS/MS; design: species or system bovine; conditions: probe 10 μM, B2(OH)4 100 μM
T3 construct: purchased MP Biomedicals; host or cells: bovine erythrocytes
Protocol: as §1, with “BARS probe 21′a: Enamine N-oxide 21′a (10 μL, 500 μM in PBS, pH 7.4; 10 μM final concentration) was added to an aliquot of recombinant CA from bovine erythrocytes ([…], MP Biomedicals) suspended in 480 μL PBS, pH 7.4 in a microcentrifuge tube and incubated at rt for 30 min. Tetrahydroxydiboron” for “Tetrahydroxydiboron”
An aliquot of carbonic anhydrase labeled with enamine N-oxide 21′a (prepared from the above procedure) was reduced with dithiothreitol (10 mM final concentration, 56° C., 30 min), alkylated with iodoacetamide (22.5 mM final concentration, rt, 30 min protected from light), and digested overnight with Glu-C (1:20) at 37° C. in 100 mM ammonium bicarbonate. Peptides were desalted using SP3 beads and analyzed by nano-LC-MS/MS using a nanoAcquity UPLC system interfaced to a QExactive HF mass spectrometer (Ficarro et al., Anal. Chem., 9:3440-3447 (2009)). […]

T2 sequence (P00921 whole entry): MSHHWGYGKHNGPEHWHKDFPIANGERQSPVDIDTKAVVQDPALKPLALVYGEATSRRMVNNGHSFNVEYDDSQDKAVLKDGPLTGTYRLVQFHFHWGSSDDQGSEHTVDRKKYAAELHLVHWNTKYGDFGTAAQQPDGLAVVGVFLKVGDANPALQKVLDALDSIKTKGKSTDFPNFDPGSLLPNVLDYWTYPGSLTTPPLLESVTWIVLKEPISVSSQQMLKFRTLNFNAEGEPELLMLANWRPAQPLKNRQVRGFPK
T3 sequence (P00921 whole entry): as above

labeling of CA (intact mass spectrometry) (carbonic anhydrase (CA) [2]) [%]	Structure (SMILES)	labeling of endogenous CA in HEK293T cell lysate (CA2 [1])	additional targets pulled down (validated targets)	other results
–	CCN(CC)C(=O)C=CCCc1ccccc1 [compound 13, reference compound]	barely perceptible	–	protein labeled (intact mass spectrometry of CA) (carbonic anhydrase (CA) [2]; N-oxide probe plus diboron or diazirine probe plus UV irradiation): < 1%
3.6	C#CCCC1(CCNC(=O)CCOCCOCCOCCNC(=O)c2ccc(S(N)(=O)=O)cc2)N=N1 [21′b, N-(15-(3-(but-3-yn-1-yl)-3H-diazirin-3-yl)-12-oxo-3,6,9-trioxa-13-azapentadecyl)-4-sulfamoylbenzamide, reference compound]	–	–	–
–	C#CCCC[N+](C)([O-])/C(Br)=C/C(Cl)CCCC(=O)N(C)[C@@H]1C[C@H]2O[C@@](C)([C@@H]1OC)n1c3ccccc3c3c4c(c5c6ccccc6n2c5c31)C(=O)NC4 (stereo partly drawn) [26′a, (Z)-1-Bromo-3-chloro-7-(((5S,6R,7R,9R)-6-methoxy-5-methyl-14-oxo-6,7,8,9,15,16-hexahydro-5H,14H-17-oxa-4b,9a,15-triaza-5,9-methanodibenzo[b,h]cyclonona[jkl]cyclopenta[e]-as-indacen-7-yl)(methyl)amino)-N-methyl-7-oxo-N-(pent-4-yn-1-yl)hept-1-en-1-amine oxide]	–	PKC and SRC pulled down	–
–	C#CCCC[N+](C)([O-])/C(Br)=C/C(Cl)CCCC(=O)NCCCCCCNc1cc(Nc2ncc(C(=O)Nc3c(C)cccc3Cl)s2)nc(C)n1 (centres unmarked) [24′a, (Z)-1-Bromo-3-chloro-7-((6-((6-((5-((2-chloro-6-methylphenyl)carbamoyl)thiazol-2-yl)amino)-2-methylpyrimidin-4-yl)amino)hexyl)amino)-N-methyl-7-oxo-N-(pent-4-yn-1-yl)hept-1-en-1-amine oxide]	–	ABL and p38 pulled down	–
51.8	C#CCCC[N+](C)([O-])C(Br)=CC(Cl)CCCC(=O)NCCCOCCOCCOCCCNC(=O)c1ccc(S(N)(=O)=O)cc1 (centres unmarked) [21′a, 23-Bromo-21-chloro-N-methyl-1,17-dioxo-N-(pent-4-yn-1-yl)-1-(4-sulfamoylphenyl)-6,9,12-trioxa-2,16-diazatricos-22-en-23-amine oxide]	could also be labeled; also recorded: superior labeling	–	selectivity of labeling, CA over BSA (carbonic anhydrase (CA) [3]): CA was preferentially labeled over BSA; target identification in live HEK293T cells (CA2) (CA2 [4]): positively identified; labeling sites on CA N-terminal peptide (carbonic anhydrase): His2 or His3; improvement of CA labeling, enamine N-oxide over diazirine (carbonic anhydrase (CA) [2]; 51.8% vs 3.6% labeling): 14.4 fold
